According to patent US20090137499A1, “BENZYLPHENYL GLUCOPYRANOSIDE DERIVATIVE” (priority 2006, published 2009):

molecular target: T1, human SGLT2 (Homo sapiens, UniProt P31639); experiment: Determination of SGLT2 inhibiting activity using human SGLT2 expressing cell ([14C]-α-methyl-D-glucopyranoside uptake); type: cell-based; conditions: HEK-SGLT2 cells, 1 mM [14C]-α-methyl-D-glucopyranoside, 37° C., 30 min
T1 construct: expressed in transfected cells
T1 sequence (P31639 1-672): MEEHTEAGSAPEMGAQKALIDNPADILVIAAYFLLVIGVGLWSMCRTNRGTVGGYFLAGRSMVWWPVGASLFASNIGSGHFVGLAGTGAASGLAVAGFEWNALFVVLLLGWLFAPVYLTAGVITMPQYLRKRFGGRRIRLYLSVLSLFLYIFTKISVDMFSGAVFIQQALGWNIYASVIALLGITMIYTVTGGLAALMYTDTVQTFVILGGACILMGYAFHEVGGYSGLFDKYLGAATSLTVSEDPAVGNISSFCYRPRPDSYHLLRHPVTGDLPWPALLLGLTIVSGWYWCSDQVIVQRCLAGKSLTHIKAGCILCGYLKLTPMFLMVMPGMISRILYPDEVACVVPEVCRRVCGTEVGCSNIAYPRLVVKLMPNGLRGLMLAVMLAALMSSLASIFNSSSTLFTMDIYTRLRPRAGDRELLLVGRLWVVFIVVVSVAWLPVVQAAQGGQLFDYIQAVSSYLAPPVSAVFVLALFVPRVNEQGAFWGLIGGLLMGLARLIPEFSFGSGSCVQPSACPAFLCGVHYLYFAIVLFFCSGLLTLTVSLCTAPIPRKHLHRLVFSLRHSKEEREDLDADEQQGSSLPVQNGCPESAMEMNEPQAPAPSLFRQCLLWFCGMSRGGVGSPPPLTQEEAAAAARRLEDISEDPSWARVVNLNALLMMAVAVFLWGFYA
Description: Determination of SGLT2 Inhibiting Activity Using Human SGLT2 Expressing Cell
1) Preparation of Vector Expressing Human SGLT2 cDNA in Animal Cell
Amplification was performed by PCR using human SGLT2 cDNA clone (Origene: Clone Number, TC303267; GenBank accession number, NM 003041) as a template. The sense oligonucleotide primer for PCR was 5′-[…]-3′ (Primer 3: SEQ ID NO: 3 in the sequence listing),
and the antisense oligonucleotide primer was 5′-[…]-3′ (Primer 4: SEQ ID NO: 4 in the sequence listing). The PCR product was subjected to agarose electrophoresis, then a target DNA fragment was recovered from a single band corresponding to 2037 bases, digested with restriction enzymes HindIII and XhoI, and introduced into the HindIII/XhoI site of vector pCMV-Script (Stratagene) to obtain SGLT2 expressing plasmid pCMV-SGLT2. A HindIII/XhoI fragment was excised from pCMV-SGLT2 and introduced into the BamHI/XhoI site of pENTR1A (Gateway, Invitrogen) to prepare pENTR-SGLT2. Retrovirus vector pLPCX (Clontech) into which Gateway Vector Conversion System Cassette A (Invitrogen) was introduced was used as the destination plasmid to prepare SGLT2 expressing retrovirus vector pLPCX-SGLT2.
2) Establishment of Human SGLT2 Expressing Cell
The retrovirus pLPCX-SGLT2 obtained in 1) was transfected into integrin αvβ3 expressing HEK-293 cells, the cells were treated with antibiotic G418 (brand name, Geneticin: Invitrogen) and puromycin (Clontech) to obtain HEK-SGLT2 cells stably expressing the target vector having resistance. The stably expressing cells were cultured and maintained in DMEM medium containing […] G418, […] puromycin, 3 mM KGT-1075, and 10% FBS.
3) Determination of SGLT2 Inhibiting Activity
HEK-SGLT2 cells were suspended at a density of 10^6 cells/mL in DMEM medium containing 250 mg/mil G418, 1 mg/ml puromycin, and 10% FBS, and 100 μL was seeded in each well of a type 1 collagen-coated 96-well culture plate (Corning). On the following day, the medium was replaced with a sugar uptake buffer (10 mM HEPES [pH 7.5], 5 mM Tris-HCl [pH 7.5], 140 mM NaCl, 2 mM KCl, 1 mM CaCl2, 1 mM MgCl2), and the cells were cultured with 1 mM [^14C]-α-methyl-D-glucopyranoside (0.1 mCi) and a test compound at 37° C. for 30 min, and then washed 3 times with a washing buffer (10 mM HEPES (pH 7.5), 5 mM Tris-HCl (pH 7.5), 140 mM choline chloride, 2 mM KCl, 1 mM CaCl2, 1 mM MgCl2). 100 μL of liquid scintillation cocktail (brand name, Supermix: Perkin-Elmer) was added to each well of the 96-well plate and stirred for 10 min, and then radioactivity was determined with micro β (Perkin-Elmer), a type of liquid scintillation counter. The value obtained by deducting the radioactivity in the presence of an excess amount of an SGLT2 inhibiting compound as the background from each measured value was taken as the sugar uptake activity, the inhibition rate (%) was calculated from the control sugar uptake activity obtained without using a test compound and the sugar uptake activity obtained using a test compound having a predetermined concentration, and the concentrations of the test compound at which the sugar uptake activity was inhibited by 50% were assessed.

| Structure (SMILES) | IC50 |
| --- | --- |
| COc1ccc(Cc2c(OC)cc(CO)cc2O[C@@H]2O[C@H]([C@@H](C)O)[C@@H](O)[C@H](O)[C@H]2O)cc1 [Example 83, 5-Hydroxymethyl-3-methoxy-2-(4-methoxybenzyl)phenyl 7-deoxy-D-glycero-β-D-gluco-heptopyranoside] | 39 nM |
| COc1ccc(Cc2c(F)cc(CO)cc2O[C@@H]2O[C@H]([C@@H](C)O)[C@@H](O)[C@H](O)[C@H]2O)cc1 [Example 84, 3-Fluoro-5-hydroxymethyl-2-(4-methoxybenzyl)phenyl 7-deoxy-D-glycero-β-D-gluco-heptopyranoside] | 6.3 nM |
| C[C@@H](O)[C@H]1O[C@@H](Oc2cc(CO)cc(F)c2Cc2ccc(C3CC3)cc2)[C@H](O)[C@@H](O)[C@@H]1O [Example 88, 2-(4-Cyclopropylbenzyl)-3-fluoro-5-hydroxymethylphenyl 7-deoxy-D-glycero-β-D-gluco-heptopyranoside] | 19 nM |
| CCc1ccc(Cc2c(C)cc(CO)cc2O[C@@H]2O[C@H]([C@@H](C)O)[C@@H](O)[C@H](O)[C@H]2O)cc1 [Example 89, 2-(4-Ethylbenzyl)-5-hydroxymethyl-3-methylphenyl 7-deoxy-D-glycero-β-D-gluco-heptopyranoside] | 35 nM |
| CCOc1ccc(Cc2ccc(CO)cc2O[C@@H]2O[C@H]([C@@H](C)O)[C@@H](O)[C@H](O)[C@H]2O)cc1 [Example 93, 2-(4-Ethoxybenzyl)-5-hydroxymethylphenyl 7-deoxy-D-glycero-β-D-gluco-heptapyranoside] | 13 nM |
| COc1ccc(Cc2c(C)cc(CO)cc2O[C@@H]2O[C@H]([C@@H](C)O)[C@@H](O)[C@H](O)[C@H]2O)cc1 [Example 94, 5-Hydroxymethyl-2-(4-methoxybenzyl)-3-methylphenyl 7-deoxy-D-glycero-β-D-gluco-heptopyranoside] | 11 nM |
| C[C@@H](O)[C@H]1O[C@@H](Oc2cc(CO)cc(Cl)c2Cc2ccc(OC3CC3)cc2)[C@H](O)[C@@H](O)[C@@H]1O [Example 95, 3-Chloro-2-(4-cyclopropoxybenzyl)-5-hydroxymethyl-phenyl 7-deoxy-D-glycero-β-D-gluco-heptopyranoside] | 49 nM |
| Cc1cc(CO)cc(O[C@@H]2O[C@H]([C@@H](C)O)[C@@H](O)[C@H](O)[C@H]2O)c1Cc1ccc(OC2CC2)cc1 [Example 96, 2-(4-Cyclopropoxybenzyl)-5-hydroxymethyl-3-methyl-phenyl 7-deoxy-D-glycero-β-D-gluco-heptopyranoside] | 36 nM |
| Cc1ccc(Cc2c(F)cc(CO)cc2O[C@@H]2O[C@H]([C@@H](C)O)[C@@H](O)[C@H](O)[C@H]2O)cc1 [Example 97, 3-Fluoro-5-hydroxymethyl-2-(4-methylbenzyl)phenyl 7-deoxy-D-glycero-β-D-gluco-heptopyranoside] | 11 nM |
| Cc1ccc(Cc2ccc(CO)cc2O[C@@H]2O[C@H]([C@@H](C)O)[C@@H](O)[C@H](O)[C@H]2O)cc1 [Example 98, 5-Hydroxymethyl-2-(4-methylbenzyl)phenyl 7-deoxy-D-glycero-β-D-gluco-heptapyranoside] | 17 nM |
| C=Cc1cc(CO)cc(O[C@@H]2O[C@H]([C@@H](C)O)[C@@H](O)[C@H](O)[C@H]2O)c1Cc1ccc(OC)cc1 [Example 101, 5-Hydroxymethyl-2-(4-methoxybenzyl)-3-vinyl-phenyl 7-deoxy-D-glycero-β-D-gluco-heptopyranoside] | 136 nM |
